In PMC7059199, “Identification and structural insight of an effective PPARγ modulator with improved therapeutic index for anti-diabetic drug discovery” (Chemical Science, 2020):
pIC50, pKi: −log10 of the molar value. Blank lines part the entries; values can stand above or below the compound they belong to.

Key:
PPARα = target: T1, PPARα (Homo sapiens, UniProt Q07869); assay: Competitive TR-FRET assay, PPARα; conditions: at 10 μM
T1 sequence (Q07869 1-468): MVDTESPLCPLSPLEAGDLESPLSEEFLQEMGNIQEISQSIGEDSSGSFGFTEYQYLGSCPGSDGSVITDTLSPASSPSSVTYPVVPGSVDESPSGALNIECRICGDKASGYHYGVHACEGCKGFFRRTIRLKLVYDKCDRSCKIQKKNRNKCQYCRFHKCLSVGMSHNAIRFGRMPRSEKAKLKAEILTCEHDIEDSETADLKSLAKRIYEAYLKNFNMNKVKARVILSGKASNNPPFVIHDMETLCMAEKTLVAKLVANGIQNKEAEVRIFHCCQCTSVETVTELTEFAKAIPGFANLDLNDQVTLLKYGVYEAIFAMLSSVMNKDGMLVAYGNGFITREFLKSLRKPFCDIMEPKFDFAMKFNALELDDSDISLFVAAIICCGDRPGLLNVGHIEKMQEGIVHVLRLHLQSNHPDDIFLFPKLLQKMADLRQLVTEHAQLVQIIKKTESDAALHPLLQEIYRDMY

HFD mice = assay: Anti-diabetic activity and side effects in HFD mice, 7 weeks; conditions: for expression of Glut4 and Adiponectin in adipose tissue (mRNA) / expression of adipogenic genes PPARγ, AP2, CD36, LPL, C/EBPa and Fasn in adipose tissue (mRNA): (S)-VSP-77 5 mg/kg i.p.
Experimental: HFD mice were injected with (S)- or (R)-VSP-77 for 7 weeks.
Laboratory Animal Co., Shanghai, China) were housed in a temperature-controlled
For chronic treatment, mice were fed high-fat diets (60% calories from fat; Research Diets, New Brunswick, NJ, USA) or standard diets ad libitum. At 14 weeks of age, mice were randomly assigned to
(5 mg/day/kg or 10 mg/kg/day), VSP-77 (5 mg/kg/day) and (S)- or (R)-VSP-77 (5 mg/kg/day) were intraperitoneally injected and INT131 (30 mg/kg/day) was orally treated. The glucose tolerance test (2 g/kg glucose i.p.) and determination of fasting blood glucose and insulin levels were performed after 6 h of starvation. At the end, the animals were anatomized and blood and tissues were collected for further

3T3-L1 cells [1] = assay: 3T3-L1 adipocyte differentiation assay (Oil Red O staining); format: cell-based, mouse; conditions: Rosi 10 μM; 2 days
Experimental: One of the best documented side-effects of the PPARγ agonist drugs is weight gain as PPARγ is the key activator of adipogenesis. To determine whether VSP-77 promotes adipogenesis, we treated mouse fibroblast 3T3-L1 cells with 100 μM of VSP-77. […] Cells were incubated with Oil Red O, which stains adipocytes red.
Fig. 6 3T3-L1 adipocyte differentiation assay. Oil Red O staining of 3T3-L1 fibroblast cells after differentiating with different ligands for 2 days. […]
Adipocyte differentiation assay
The adipocyte differentiation assay was performed with NIH 3T3-L1 preadipocytes obtained from ATCC. The 3T3-L1 preadipocytes were maintained in DMEM containing 10% FBS and antibiotics. For differentiation DMI (Dexamethazone 1 μM, 3-isobutyl-1-methyxanthine (IBMX) 0.5 mM and Insulin167 nM) and 10 μM of rosiglitazone were used as positive controls for the assay. VSP-77 was used at a 100 μM concentration. All the treatments have insulin at 167 nM concentration. Media with DMSO was used as a negative control. Differentiation was induced by treating post-confluent cultures with media containing the respective ligands for two days.
Cells were stained with Oil Red O to estimate the lipid accumulation. The images were analyzed using ImageJ (National Institutes of Health). […]

3T3-L1 cells [2] = assay: qPCR of adipogenic genes in 3T3-L1 cells; format: cell-based, mouse; conditions: 7 days after treatment
Experimental: Encouraged by the above results and to further determine whether VSP-77 activates PPARγ in 3T3-L1 cells, we evaluated the ability of VSP-77 to stimulate PPARγ activity by measuring the mRNA levels of endogenous PPARγ-regulated downstream genes linked to adipogenesis (primers are listed in Table S1 ^†).
Fig. 7 Expression of adipogenic genes in 3T3-L1 cells was analyzed by quantitative PCR (qPCR). Relative mRNA levels of the adipocyte differentiation genes PPARγ, aP2, CD36, LPL, C/EBPα and Fasn. mRNA was extracted from differentiating cells 7 days after treatment (n = 3, error bars = SEM). […]
(average±standard deviation calculated from three separate experiments). […]
Cells were stained with Oil Red O to estimate the lipid accumulation. The images were analyzed using ImageJ (National Institutes of Health).
For real-time PCR analysis, 1-2 μg total RNA was reverse-transcribed using the SuperScript cDNA Reverse Transcription Kit (Invitrogen) with SYBR Green PCR Master Mix (Invitrogen) and gene specific primers (Table S1) using a Roche Light Cycler 480 machine. The relative expression of mRNA was determined after normalization to β-actin level using the ΔΔ-Ct method. […]

[3] = target: hERG potassium ion channel (Homo sapiens, UniProt Q12809); design: method as in PMID 23054723; conditions: read-out: hERG inhibition IC50; cited from earlier work
Sequence of hERG potassium ion channel (Q12809 whole entry, the tested form may be a part): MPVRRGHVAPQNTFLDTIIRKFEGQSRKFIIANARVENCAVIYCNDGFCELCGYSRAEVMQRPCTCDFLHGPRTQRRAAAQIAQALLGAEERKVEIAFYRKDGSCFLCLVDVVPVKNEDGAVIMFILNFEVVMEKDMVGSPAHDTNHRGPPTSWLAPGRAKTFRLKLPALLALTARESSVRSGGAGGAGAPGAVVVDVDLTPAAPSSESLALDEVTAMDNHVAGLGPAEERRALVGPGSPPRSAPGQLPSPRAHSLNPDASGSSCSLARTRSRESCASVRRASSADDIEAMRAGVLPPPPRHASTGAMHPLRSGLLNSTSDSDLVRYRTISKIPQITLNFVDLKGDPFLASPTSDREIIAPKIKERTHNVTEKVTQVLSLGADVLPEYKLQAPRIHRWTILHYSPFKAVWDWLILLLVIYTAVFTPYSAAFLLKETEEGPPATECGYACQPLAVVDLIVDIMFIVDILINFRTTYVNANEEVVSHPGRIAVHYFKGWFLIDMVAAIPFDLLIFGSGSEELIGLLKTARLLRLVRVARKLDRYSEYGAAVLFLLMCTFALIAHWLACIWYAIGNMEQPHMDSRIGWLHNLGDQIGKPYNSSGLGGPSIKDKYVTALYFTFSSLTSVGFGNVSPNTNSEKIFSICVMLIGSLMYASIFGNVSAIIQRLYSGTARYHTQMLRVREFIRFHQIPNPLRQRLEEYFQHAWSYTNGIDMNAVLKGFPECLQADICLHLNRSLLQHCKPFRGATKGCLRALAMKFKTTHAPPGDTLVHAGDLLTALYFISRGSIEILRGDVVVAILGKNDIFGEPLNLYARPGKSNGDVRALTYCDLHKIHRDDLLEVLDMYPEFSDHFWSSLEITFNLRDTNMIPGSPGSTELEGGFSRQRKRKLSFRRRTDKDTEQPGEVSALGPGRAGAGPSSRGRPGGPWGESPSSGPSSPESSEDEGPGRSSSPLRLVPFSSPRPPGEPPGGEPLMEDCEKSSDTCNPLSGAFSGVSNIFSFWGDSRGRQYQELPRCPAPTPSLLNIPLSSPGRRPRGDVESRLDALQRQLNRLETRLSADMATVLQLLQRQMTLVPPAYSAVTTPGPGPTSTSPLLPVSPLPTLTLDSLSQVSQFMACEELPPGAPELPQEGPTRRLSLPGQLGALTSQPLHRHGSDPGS

GST-PPARγ LBD = target: T2, GST-PPARγ LBD (Homo sapiens, UniProt P37231); assay: LanthaScreen TR-FRET competitive binding assay, PPARγ; conditions: competition of Fluormone (5 nM); 0.5 nM GST-PPARγ LBD
T2 construct: 0.5 nM GST-PPARγ LBD was incubated with 5 nM Fluormone™; purchased Invitrogen
T2 sequence (P37231 238-503 limits assumed): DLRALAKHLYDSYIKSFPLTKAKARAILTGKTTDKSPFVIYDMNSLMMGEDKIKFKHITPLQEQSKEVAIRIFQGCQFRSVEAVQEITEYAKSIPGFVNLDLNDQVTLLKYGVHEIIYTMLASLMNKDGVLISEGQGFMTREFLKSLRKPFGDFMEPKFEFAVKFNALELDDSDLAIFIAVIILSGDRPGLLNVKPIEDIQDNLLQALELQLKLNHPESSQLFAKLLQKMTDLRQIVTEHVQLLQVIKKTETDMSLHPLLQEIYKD
Experimental: LanthaScreen™ TR-FRET assay (Invitrogen) was used for measuring the binding affinities of the ligands. 0.5 nM GST-PPARγ LBD was incubated with 5 nM Fluormone™ and Terbium-coated GST antibody.
Competitive TR -FRET binding assay
The GST PPARγ -LBD was labeled with a terbium-linked antibody and a fluorescent small molecule pan-PPAR ligand (Fluormone™ Pan-PPAR Green, Invitrogen) was used as a tracer that is displaced from the ligand binding domain upon agonist binding.
Excitation of the terbium at 340 nm results in FRET to the fluorescent tracer, with
Tracer displacment results is a loss of FRET signal between the terbium label and the fluorescent tracer.
The inhibition constant (ki) for a competitor was calculated by applying the
Cheng-Prusoff equation as following:
the tracer, [tracer] is the concentration of Fluormone™ Pan-PPAR Green used in the

binding capability for PPARα (PPARα): ~100%
Structure (SMILES): CC(C)(Sc1ccc(CCN(CCCCC2CCCCC2)C(=O)NC2CCCCC2)cc1)C(=O)O [GW7647, reference compound]

Structure (SMILES): CCCCCCC[C@H](OCC(=O)O)c1ccc(Cl)cc1 [(S)-VSP-77]
CDK5-mediated Ser-273 phosphorylation of PPARγ in white adipose tissue (HFD mice; 5 mg/kg i.p.): effectively blocked
fasting glucose levels (HFD mice; 5 mg/kg i.p.): significant reduction
fasting insulin levels (HFD mice; 5 mg/kg i.p.): significant reduction
fluid retention (HFD mice; 5 mg/kg i.p.): does not promote
expression of Glut4 and Adiponectin in adipose tissue (mRNA) (HFD mice; Rosi 10 mg/kg i.p.): increased
expression of adipogenic genes PPARγ, AP2, CD36, LPL, C/EBPa and Fasn in adipose tissue (mRNA) (HFD mice; Rosi 10 mg/kg i.p.): weakly induced

Structure (SMILES): CN(CCOc1ccc(CC2SC(=O)NC2=O)cc1)c1ccccn1 (centres unmarked) [Rosi, rosiglitazone, reference compound]
% Area stained by Oil Red O (3T3-L1 cells [1]): 37%
expression of adipogenic genes PPARγ, aP2, CD36, LPL, C/EBPα and Fasn (mRNA) (3T3-L1 cells [2]): robustly induced
pIC50 [3]: 4.73
body weight gain (HFD mice; (S)-/(R)-VSP-77 5 mg/kg i.p., Rosi 10 mg/kg i.p.): observed
expression of Glut4 and Adiponectin in adipose tissue (mRNA) (HFD mice; Rosi 10 mg/kg i.p.): increased
expression of adipogenic genes PPARγ, AP2, CD36, LPL, C/EBPa and Fasn in adipose tissue (mRNA) (HFD mice; Rosi 10 mg/kg i.p.): robustly stimulated

pKi (GST-PPARγ LBD): 4.30
Structure (SMILES): CCCCCCCCCC(=O)O [DA, decanoic acid, reference compound]
